{
  "source": "patent US20170027968A1",
  "about": "“ANTI-CANCER AGENT” (KTN BIOTEC, INC., priority 2013, published 2017)",
  "key": {"[1]": {"system": "NCI-H28 (human malignant mesothelioma cell)", "test": "Cell viability assay (MTT), NCI-H28", "type": "cell-based", "conditions": "NCI-H28, 1, 10, 100 μM, 24 hr or 48 hr; FIG. 3B", "description": "(§1) NCI-H28 which is a cell line of human malignant pleural mesothelioma and Met5A which is a cell line of human non-malignant mesothelioma were used. These cells were purchased from American Type Culture Collection (Manassas, Va., USA). The cells were cultured in Roswell Park Memorial Institute (RPMI)-1640 medium added with 0.003% (w/v) L-glutamine. The cells were incubated in a medium added with 10% (v/v) heat-inactivated bovine serum, penicillin (final concentration, 100 U/ml) and streptomycin (final concentration, 0.1 mg/ml) in a humid environment under 5% CO2 and 95% air at 37° C.\n(§2) The cell viability was evaluated according to previous report (Nogi Y, et al., Cell Physiol Biochem 2012; 30: 61-74.) by using 3-(4,5-dimethyl-2-thiazolyl)-2,5-diphenyl-2H-tetrazolium bromide (MTT). The measurement was performed by treating Met5A (human non-malignant mesothelioma cell) and NCI-H28 (human malignant mesothelioma cell) for 24 hr or 48 hr while changing the concentration of DPPE to 0, 1 μM, 10 μM and 100 μM."}, "[2]": {"system": "NCI-H28 (human malignant mesothelioma cell)", "test": "TUNEL staining, NCI-H28", "type": "cell-based", "conditions": "NCI-H28, 30 μM and 100 μM, 48 hr; FIG. 4", "description": "(§3) NCI-H28 which is a cell line of human malignant pleural mesothelioma and […] which is a cell line of human non-malignant mesothelioma were used. These cells were purchased from American Type Culture Collection (Manassas, Va., USA). The cells were cultured in Roswell Park Memorial Institute (RPMI)-1640 medium added with 0.003% (w/v) L-glutamine. The cells were incubated in a medium added with 10% (v/v) heat-inactivated bovine serum, penicillin (final concentration, 100 U/ml) and streptomycin (final concentration, 0.1 mg/ml) in a humid environment under 5% CO2 and 95% air at 37° C. To detect in situ DNA fragmentation to be the index of apoptosis, TUNEL staining was performed using In Situ Apoptosis Detection Kit (Takara Bio; Otsu, Japan). The cells fixed and membrane-permeabilized were incubated with terminal deoxynucleotidyl transferase and fluorescein isothiocyanate (FITC)-deoxyuridinetriphosphate at 37° C. for 90 min. FITC signal was visualized by a confocal laser microscope (LSM 510; Carl Zeiss Co., Ltd., Oberkochen, Germany). The cells used were […] (human non-malignant mesothelioma cell) and NCI-H28 (human malignant mesothelioma cell), after a treatment for 48 hr by changing the concentration of DPPE to 0, 30 μM and 100 μM."}, "[3]": {"system": "Met5A (human non-malignant mesothelioma cell)", "test": "Cell viability assay (MTT), Met5A", "type": "cell-based", "conditions": "Met5A, 1, 10, 100 μM, 24 hr or 48 hr; FIG. 3A", "description": "as §1, §2"}, "[4]": {"system": "Met5A (human non-malignant mesothelioma cell)", "test": "TUNEL staining, Met5A", "type": "cell-based", "conditions": "30 μM and 100 μM, 48 hr, FIG. 4", "description": "as §3"}, "Human recombinant PP2A": {"system": "Human recombinant PP2A", "test": "Assay of PP2A activity under cell-free conditions (p-NPP substrate)", "conditions": "100 μM, preincubated 37° C. 30 min, p-NPP 0.5 mM 60 min, FIG. 1A", "text": "(§4) Human recombinant PP2A was purchased from Millipore (Billerica, Mass., USA). Human PTP1B was cloned to pGEX-6P-3 vector having a GST tag on the NH2 terminal, and expressed in competent E. coli 3L21 (DE3) suitable for transformation and protein expression. GST fused PTP1B was affinity-purified using glutathione sepharose 4B (GE Healthcare Bio-Science KK, Tokyo, Japan). They were reacted with p-nitrophenylphosphate (p-NPP) (Sigma, St. Louis, Mo., USA) as a substrate, and each phosphatase activity was measured. PP2A (0.2 U/well) or PTP1B (1 mg/well) was preincubated in a reaction medium at 37° C. for 30 min. in the presence and absence of a phosphatase inhibitor (okadaic acid; 2 nM, sodium vanadate; 1 μM) and, phosphatidylethanolamine (DAPE, DLPE, DOPE, DPPE; 100 μM, all obtained from Avanti Polar Lipids, Inc. (Alabaster, Ala., USA)). • reaction medium for PP2A: 50 mM Tris-HCl, 0.1 mM EGTA, 0.1% (v/v) 2-mercaptoethanol, pH 7.0 • reaction medium for PTP1B: 50 mM HEPES, 1 mM EDTA, 50 mM NaCl, 1 mM dithiothreitol, pH 7.2\n(§5) Then, p-NPP (0.5 mM for PP2A, 10 mM for PTP1B) was added to the reaction medium and incubation was continued for 60 min. The reaction was discontinued by adding 0.1N NaOH. Dephosphorylated p-NPP, namely, p-NP, was quantified at absorbance 405 nm by using SpectraMax PLUS384 (Molecular Devices, Sunnyvale, Calif., USA)."}, "Human PTP1B (GST fused)": {"target": "T1, Human PTP1B (GST fused) (Homo sapiens, UniProt P18031)", "T1 sequence (P18031 1-435)": "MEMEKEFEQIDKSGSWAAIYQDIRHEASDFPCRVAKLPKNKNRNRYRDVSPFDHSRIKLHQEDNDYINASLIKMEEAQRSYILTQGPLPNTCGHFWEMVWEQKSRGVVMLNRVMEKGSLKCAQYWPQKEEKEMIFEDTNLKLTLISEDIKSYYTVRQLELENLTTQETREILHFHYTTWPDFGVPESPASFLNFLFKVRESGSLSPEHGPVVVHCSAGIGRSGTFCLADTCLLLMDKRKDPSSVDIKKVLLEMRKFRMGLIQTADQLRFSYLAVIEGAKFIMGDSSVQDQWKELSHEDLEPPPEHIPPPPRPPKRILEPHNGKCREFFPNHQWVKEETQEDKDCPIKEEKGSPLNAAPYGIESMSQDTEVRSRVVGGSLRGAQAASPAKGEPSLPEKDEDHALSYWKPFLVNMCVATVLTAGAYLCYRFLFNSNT", "test": "Assay of PTP1B activity under cell-free conditions (p-NPP substrate)", "conditions": "100 μM, preincubated 37° C. 30 min, p-NPP 10 mM 60 min, FIG. 1B", "text": "as §4, §5"}},
  "data": [
    {"smiles": "CCCCCC/C=C\\CCCCCCCC(=O)OC[C@H](COP(=O)(O)OCCN)OC(=O)CCCCCCC/C=C\\CCCCCC", "note": "[DPPE, 1,2-dipalmitoleoyl-sn-glycero-3-phosphoethanolamine]", "values": [
      {"measurement": "cell survival rate (MTT)", "setting": "[1]", "value": "induces concentration-dependent cell death in the malignant mesothelioma cell"},
      {"measurement": "apoptosis (TUNEL-stained cells relative to total cells)", "setting": "[2]", "value": "induces apoptosis of the malignant mesothelioma cell"},
      {"measurement": "cell survival rate (MTT)", "setting": "[3]", "value": "almost uninfluential on the non-malignant mesothelioma cell"},
      {"measurement": "apoptosis (TUNEL-stained cells relative to total cells)", "setting": "[4]", "value": "does not induce apoptosis of the non-malignant mesothelioma cell"},
      {"measurement": "PP2A activation enhancing action (phosphatase activity relative to control)", "setting": "Human recombinant PP2A", "value": "strong PP2A activation enhancing action"},
      {"measurement": "PTP1B activation enhancing action (phosphatase activity relative to control)", "setting": "Human PTP1B (GST fused)", "value": "PTP1B activation enhancing action"}
    ]}
  ]
}
